In patent US12264142B2, “Heterocyclic compounds” (FLORATEK PHARMA SA, priority 2019, dated 2025):

Columns and labels:
[1] = system: C. elegans gene expression; assay: Whole transcriptome analysis (RNA-Seq) of treated worms; format: in vivo
Procedure: To determine the mode of action for SND302 and SND303 the gene transcription in young and aged adults was analyzed by RNA-Seq (whole transcription analysis). For each condition, >300 worms were treated in parallel with the lifespan assay and maintained under identical conditions.
Differential gene expression was performed with EdgeR using […] likelihood ratio tests based on fitting linear models. The likelihood ratios were used to determine the p-values which were subsequently corrected for using the BH false discovery rate (fdr) method. Eventually, differential expressed genes were defined as genes with fdr-corrected p-value of 0.05 or lower, as well as a change in expression of at least 2-fold in a given between-group comparison. Compounds SND302 and SND303 were compared against Urolithin and Vehicle control. […] In general the transcriptomic data corroborates a differential effect for SND303 when compared to SND302 (FIGS. 1-4).
Worms for RNA-Seq were split from the same synchronized pool of worms for the lifespan with each of the three replicates being maintained and treated in parallel. More than 150 worms per replicate were harvested, cleaned by filtration, and frozen at −80° in Trizol. To extract RNA, samples were thawed, vigorously vortexed, and processed using the Direct-zol RNA Miniprep Kit (Zymo Research). All samples exceeded our threshold for RNA quantity and quality. RNA samples were submitted to Novogene Co. Ltd and subjected to more stringent QC, being tested on a Qubit for concentration and run on an agarose gel and on the Agilent […] assess RNA quality and integrity. […] The total RNA was then enriched for poly-mRNA using oligo(dT) paramagnetic beads. DNA libraries were then constructed from this input mRNA using the NEBNext Ultra™ II RNA Library Prep Kit.
These libraries were then further tested by the Qubit for concentration and the Agilent 2100 for library size distribution and quality. In order to properly pool the libraries and load them onto sequencing lanes to ensure the correct number of reads per sample, an even more precise quantification of the library was done via qPCR, and the samples were loaded onto the NovaSeq 6000 platform for a paired-end sequencing run of 150 bp for each end (PE150). The loading concentrations were designed to obtain at least 6.0 Gb (which is the number of billion bases of raw data, determined by the number of reads multiplied by the length of each read). A mean of 7.4 Gb (median 7.3 Gb) raw sequencing data was obtained across all samples, with a minimum of 6.3 Gb and a maximum of 8.5 Gb raw data. Sequencing run data quality control was performed both by Novogene and by an in-house analysis. The raw data set was analyzed for parameters such as the distribution of base quality along the length of the sequencing read, the distribution of error rate along the length of the sequencing read. Reads containing adapter sequences, with N>10% (where N means “base cannot be determined”) and with a low quality (Qscore<=5) for 50% or more of its total bases were removed.

C. elegans = assay: Life span assay on Automated Lifespan Machine (SND302, SND303); format: in vivo; settings: for Mean lifespan: area under the survival curve; for Age in days at 25% mortality / Age in days at 50% mortality / Age in days at 75% mortality / Age in days at 90% mortality / Age in days at 100% mortality: SND302, SND303 25 μM, Uro A, Resveratrol 50 μM; for Effect on lifespan: in words, compared to control
Procedure: An additional life span assay using an adapted standard protocol employed and published by the C. elegans Intervention Testing Program, or CITP was employed to assess the activity of SND302 and SND303. A positive and a negative control were included in the assay. In a preliminary experiment the optimal conditions for the life span analysis was determined and the stress level induced by the compounds as well as toxicity were measured.
For the life span assay over 300 worms per conditions were used and the study was conducted by InVivoBiosystems (USA) using an Automated Lifespan Machine (ALM) with proprietary modifications to improve temperature stability and image acquisition.
To prevent chemical modification or metabolism of the test article by the food bacteria, worms were fed on a lawn of UV-killed bacteria (UV-i bacteria). An overnight culture of E. coli strain WP-2 was pelleted, washed, filtered, and irradiated. A suspension of UV-i bacteria was spotted on NGM agar containing Streptomycin to inhibit growth of contaminating bacteria. The quantity and distribution of food bacteria was calibrated to ensure adequate access to food for the duration of assay while maintaining visibility of the worms.
Test article was delivered to worms by a method compatible with and previously validated on the Automated Lifespan Machine and used by the CIT [Lucanic, et. al. Impact of genetic background and experimental reproducibility on identifying chemical compounds with robust longevity effects. Nature Communications 8 (2017)]. A 200× stock solution was freshly prepared in DMSO immediately before application. 40 μl of DMSO stock (0.5% plate volume) was applied to the plate to coat the food bacteria and then chased immediately with 160 μl water to uniformly distribute a fine precipitate across the surface of the plate. This functioned to provide reservoirs of compound in food, agar, and agar surface.
The ALM used by InVivoBiosystems is based on the Caenorhabditis elegans lifespan machine published by Stroustrup, N. et al. The Caenorhabditis elegans Lifespan Machine. N at Methods 10, 665-670 (2013), with proprietary modifications to improve temperature stability and image acquisition. The scanner unit consists of a modified EPSON V850 and images are processed and analyzed using the ALM software 7. The machine time-of-death calls are trained and validated using the “storyboarding” feature of the ALM software.
The lifespan assay was designed and performed according to published and validated methods, Amrit, F. R. G., Ratnappan, R., Keith, S. A. & Ghazi, A. The C. elegans lifespan assay toolkit. Methods 68, 465-475 (2014); Lucanic, et. al. Manual Lifespan Assay Standard Operating Procedure. Caenorhabditis Intervention Testing Program https://figshare.com/articles/7_CITP_SOP_Manual_Lifespan_Assay/9738197/1. using a modified version of the Automated Lifespan Machine. Worms were age synchronized by bleaching and eggs were plated directly onto NGM agar seeded with UV-I bacteria (Day 1, hatch). On Day 3, when the worms had reached the late L4 stage, they were transferred to dishes containing 100 μM 5-Fluorodeoxyuridine (FUdR) to suppress progeny. On day 5, the worms were washed off the dishes and 30-50 worms were plated on each scanner dish. Plates were immobilized inverted on the bed of an Automated Lifespan Machine which scanned two images per hour of the plates continuously for the next 40 days.
Time of death calls exported from the ALM software were analyzed and plotted using the Lifelines software package developed by Davidson-Pilon, (2019). lifelines: survival analysis in Python. Journal of Open Source Software, 4(40), 1317.

SMILES	Significant differentially-expressed genes ([1]; Day 3, compared to the controls (Vehicle and Urolithin A), 25 μM)	Expression of gene C50F7.5 ([1]; Day 10)	Most significant differentially-expressed genes ([1]; Day 10, compared to vehicle)	Significant differentially-expressed genes ([1]; Day 10, compared with the UroA control)	Median lifespan (C. elegans; 25 μM)	Mean lifespan (C. elegans; 25 μM)	Age in days at 25% mortality (C. elegans)	Age in days at 50% mortality (C. elegans)	Age in days at 75% mortality (C. elegans)	Age in days at 90% mortality (C. elegans)	Age in days at 100% mortality (C. elegans)	Effect on lifespan (C. elegans)	Differentially-expressed genes ([1]; Urolithin A compared with the vehicle control)	Median lifespan (C. elegans; 50 μM)	Mean lifespan (C. elegans; 50 μM)
CC(C)NC(=O)Oc1ccc2c(c1)oc(=O)c1cc(OC(=O)NC(C)C)ccc12 [SND303]	2-3 genes	significantly upregulated	7 genes	3 genes	29.0 days	27.6 days	25 days	29.0 days	31.8 days	33.9 days	39.9 days	clear and statistically significant lifespan extension	–	–	–
O=c1oc2cc(O)ccc2c2ccc(O)cc12 [Urolithin A, reference compound]	–	–	–	–	–	–	23.8 days	27.8 days	30.2 days	32.3 days	37.7 days	did not produce a significant change in lifespan	no differentially-expressed genes	27.8 days	27.0 days
